Test results: patent US11142504B2, “Substituted heterocycles as c-MYC targeting agents” (Northwestern University, priority 2016, dated 2021)

What was measured:
[1] = tested on: MV411 cells; assay: AML xenograft model, combination with Ara-C; assay type: in vivo, CB17 SCID mice; conditions: AML mice xenograft
Method: CB17 SCID mice were inoculated with MV411 cells at the density of 5×10^6 suspended in PBS and matrigel (1:1). The mice were randomized based on tumor volume into 6 different groups after the tumor reached ˜200 to 500 mm^3. The mice were treated either with vehicle, NU031, NU975 alone or in combination with cytarabine (Ara-C). […] (See FIG. 17).

[2] = molecular target: MYC/Max binding to DNA (Homo sapiens, UniProt P01106); assay: Electrophoretic mobility shift assay (EMSA)
Method: We also tested our best hit compound Min9 (NUCC-0176234) and newly synthesized analogs for effects of these compounds on MYC/Max binding to DNA in electrophoretic mobility shift assays (EMSAs). (See FIG. 5a and FIG. 5b). We expected the active compounds to impair MYC/Max binding to DNA. Several structural analogs of Min9 were tested over multiple doses for inhibiting MYC-DNA binding and we observed a dose-dependent inhibition. (See FIG. 5c).

[3] = tested on: cMYC wild-type (WT) and cMYC KO line; assay: Cell viability assay, cMYC wild-type line vs cMYC KO line; assay type: cell-based
Method: Min9 (NUCC-0176234) was also tested in a cell viability assay against a cMYC wild-type (WT) and a cMYC KO line.

[4] = tested on: PC12 cells; assay: Cell viability of PC12 cells; assay type: cell-based; conditions: for IC50: Rattus norvegicus, PC-12, Cell viability of PC12 cells
Method: (§1) PC3 prostate cancer cell line with high Myc level and PC12 pheochromocytoma tumor cell line with non functional Max protein, which is not dependent on Myc-Max complex, were phased from ATCC. Cells were plated in 96 well plate at 1000 cells per well, and Myc inhibitor 361 at various concentrations was added to the cells next day. After 3 days of treatment, fresh medium with 361 were added again, and cell viability was measured by MTS assay at day 5 after the treatment. (See FIG. 11).

[5] = In vitro metabolism in mouse S9 fraction; assay type: in vitro ADME
Method: (§2) In vitro metabolism of NUCC-176242 and NUCC-176248 were tested using mouse liver microsomes and a mouse S9 fraction. (See FIG. 9).

[6] = tested on: MycCap cells; assay: Cell viability of MycCap cells; assay type: cell-based; conditions: Mus musculus, Myc-CaP
[7] = tested on: MYC WT and KO fibroblasts; assay: Growth inhibition of wild type and MYC knockout rat fibroblasts; assay type: cell-based
From the text: We tested the top 13 active compounds in the first screen assay. […] More than half of the tested compounds show better growth inhibitory effect on MYC WT compared to MYC KO cells.

[8] = Stability in mouse liver microsomes; assay type: in vitro ADME; conditions: % remaining of compound after 60 min treatment with mouse liver microsomes
Method: as §2

[9] = tested on: MYC transcriptional activity; assay: MYC E-Box luciferase reporter assay; assay type: cell-based; conditions: MycCap Ebox-luc, 4 hours of treatment
Method: To test the compounds, we evaluated the in silico hits in a MYC E-Box luciferase reporter assay to measure the effects of these compounds (referred to as Min-1 to Min-32) on MYC transcriptional activity. […] (See FIG. 2).
MycCap cells stably expressing luciferase with CMV promoter (MycCap-luc) or c-Myc E-box-luciferase reporter (MycCap Ebox-luc) were plated at 10000 cells per well in 96 well white-wall plate. Serial dilutions of 361 were treated next day. At 4 hours of treatment, luminescence signal was determined immediately after adding 150 μg/ml of Luciferin to the well. (See FIG. 12).

[10] = tested on: PC3 prostate cancer cell line; assay: Proliferation assay (MTS), PC3 cells; assay type: cell-based; conditions: MTS at day 5
Method: as §1

[11] = tested on: MycCap cells; assay: MycCap FVB allograft model; assay type: in vivo, FVB mice
Method: FVB mice were inoculated with 1×10^6 of MycCap cells in 100 ul of matrigel subcutaneously on both flanks of the mice. When tumor size reached average size of 150 mm^3, mice were randomized based on tumor volume to 2 groups. Mice were administered with 50 mg/kg of 361 or vehicle (Veh) twice daily intra-peritoneally for two days. The treatment was suspended for 10 day, and initiated the treatment with a lower dose […] daily for another 9 days. Tumor size was measured twice a week during the experiment. (See FIG. 15).
MycCap FVB allograft model was treated with 361 (50 mg/kg) for two days, following by two days of anti-PD-1 antibody (100 ug/day), and kept this 4-day treatment cycle for 4 cycles. (See FIG. 16).

Sequence of MYC/Max binding to DNA (P01106 whole entry, species assumed): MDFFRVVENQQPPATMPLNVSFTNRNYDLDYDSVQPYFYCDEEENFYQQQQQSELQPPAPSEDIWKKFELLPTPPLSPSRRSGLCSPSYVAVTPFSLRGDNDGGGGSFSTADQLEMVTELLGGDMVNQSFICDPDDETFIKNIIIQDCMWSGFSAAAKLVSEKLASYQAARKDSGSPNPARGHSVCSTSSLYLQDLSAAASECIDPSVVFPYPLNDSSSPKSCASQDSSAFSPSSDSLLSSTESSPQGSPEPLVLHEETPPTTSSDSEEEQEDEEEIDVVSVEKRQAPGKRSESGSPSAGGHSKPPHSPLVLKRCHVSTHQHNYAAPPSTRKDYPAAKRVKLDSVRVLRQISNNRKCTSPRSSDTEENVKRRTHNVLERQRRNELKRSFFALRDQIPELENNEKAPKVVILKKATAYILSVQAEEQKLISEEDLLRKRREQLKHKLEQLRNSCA

Compound	IC50 [4]	IC50 [6]	MLM % at 60 min [8]	IC50 [2]	also measured
CCCCOc1ccc(-c2cc(C(F)(F)F)n[nH]2)c(O)c1-c1cc(C(F)(F)F)cc(C(F)(F)F)c1 [NU031]					anti-tumor effect in combination with Ara-C [1]: significant difference compared to control group
Cn1nc(C(F)(F)F)cc1-c1ccc(OCc2ccc(Cl)cc2)c(-c2ccc(Cl)c(C(F)(F)F)c2)c1O [NU975]					anti-tumor effect in combination with Ara-C [1]: significant difference compared to control group
CCc1ccc(Oc2c[nH]nc2-c2ccc(OCc3cnn(-c4ccccc4)c3)cc2O)cc1 [NUCC-0176234]					inhibition of MYC/Max binding to DNA (in words) [2]: prevent c-MYC/DNA binding; cell viability, WT line vs KO cells [3]: reduces cell viability much more in the WT line than the KO cells
CCc1ccc(Oc2c(-c3ccc(OCc4ccc(Cl)cc4)cc3O)n[nH]c2C(F)(F)F)cc1 [NUCC-0176242]	9.8 µM	3.1 µM			in vitro metabolism by mouse S9 fraction [5]: significantly metabolism by the mouse S9 fraction
CCc1ccc(Oc2c(-c3ccc(OCc4ccc(Cl)cc4)cc3O)nn(C)c2C(F)(F)F)cc1 [NUCC-0176248]	7.8 µM	3.4 µM			selectivity of growth inhibition, MYC WT vs MYC KO cells [7]: high specificity
CCc1ccc(Oc2c(-c3ccc(OCc4ccncc4)cc3O)n[nH]c2C(F)(F)F)cc1 [NUCC-0176250]					selectivity of growth inhibition, MYC WT vs MYC KO cells [7]: great selectivity
Oc1cc(OCc2ccc(Cl)cc2)ccc1-c1n[nH]c(C(F)(F)F)c1Oc1ccccc1Cl [NUCC-0196342]		3.5 µM	87.4%	64.4 µM	
Cn1nc(C(F)(F)F)cc1-c1ccc(OCc2ccc(Cl)cc2)c(-c2cc(C(F)(F)F)cc(C(F)(F)F)c2)c1O [NUCC-0196361]	30.7 µM	3.8 µM	72.9%	63 µM	
Oc1c(-c2cc(C(F)(F)F)[nH]n2)ccc(OCc2ccc(Cl)cc2)c1-c1ccccc1Cl [NUCC-0196363]		4 µM	88.6%	61.8 µM	
COc1cccc(-c2c(-c3ccc(OCc4ccc(Cl)cc4)cc3O)n[nH]c2C(F)(F)F)c1 [NUCC-0198309]		4 µM	74%	61.2 µM	
Cn1nc(C(F)(F)F)cc1-c1ccc(OCc2ccc(Cl)cc2)c(-c2ccc(Cl)c(C(F)(F)F)c2)c1O [NUCC-0200975]	38.4 µM	6.1 µM			anti-tumor effect in combination with Ara-C ([1]; listed as 975): significant synergic anti-tumor effect with Ara-C
Cn1nc(C(F)(F)F)cc1-c1ccc(OCc2ccc(Cl)cc2)c(-c2cc(C(F)(F)F)cc(C(F)(F)F)c2)c1O [compound 361]					proliferation of Myc independent cell line PC12 ([4]; MTS at day 5): not; c-Myc transcription activity [9]: inhibits c-Myc transcription activity as an early event before affecting cell viability; proliferation of Myc dependent cell line PC3 [10]: specifically inhibits proliferation; tumor progression, combination with immunotherapy ([11]; 361 50 mg/kg with anti-PD-1 antibody, 4-day cycles): significantly blocks tumor progression; tumor volume ([11]; mouse prostate cancer allograft, intra-peritoneally): reduces tumor volume
